Results on one molecule are retold here after patent publication US20140243415A1, “COMPOUNDS INHIBITING GALECTIN-1 EXPRESSION, CANCER CELL PROLIFERATION, INVASION, AND TUMORIGENESIS” (ONCOETHIX SA, priority 2011, published 2014).

Usually GI50 stands for the concentration giving 50% growth inhibition. Read a high GI50 as less potent growth inhibition.

The test system of test [1] is panel of human cancer cell lines. In words: MTT cell cytotoxicity assay, cell line panel. Format: cell-based. Conditions: Homo sapiens; remaining cell lines (other than SQ20B, OVCAR3, A2780-1A9). The method, then: (§1) Cell survival was determined using the MTT assay (3-[4,5-dimethylthiazol-2-yl]-2,5-diphenyltetrazolium bromide; Sigma, Saint-Quentin Fallavier, France). The conversion of yellow water-soluble tetrazolium MTT into purple insoluble formazan is catalyzed by mitochondrial dehydrogenases and used to estimate the number of viable cells. In brief, cells were seeded in 96-well tissue culture plates at a density of 2×10^3 cells/well. After 72 h drug exposure and 48 h wash-out, cells were incubated with 0.4 mg/ml MTT for 4 hours at 37° C. After incubation, the supernatant was discarded, insoluble formazan precipitates were dissolved in 0.1 ml of DMSO and the absorbance was measured at 560 nm by use of a microplate reader (Thermo, France). […] IC50's were determined as the halves of maximal inhibitory drug concentration for each cell line.
The antiproliferative effects of OTX-008 and anginex were assessed using MTT assay in a panel of human cancer cell lines of human origins expressing various levels of Lgals-1 mRNA and galectin-1 protein expressions (Supplementary Table 1). […] No correlation between mRNA expressions of galectin-2, galectin-3, and galectin-8 as well as semaphorin-3A, semaphorin-3B, neuropilin-1, VEGFR1-3, VEGFA-D, and PDGFRa&P3 and sensitivity to OTX-008 were detected in the panel.
A general note: Tetrazolium dyes change colour on reduction, which living cells bring about.

In test [2] the test system is COL0205-S and COL0205-R cells. In words: Antiproliferative effects, epithelial vs mesenchymal COLO205. Format: cell-based, human.
From the text: (§2) FIG. 2. Epithelial-to-mesenchymal differentiation and OTX-008 sensitivity. A—Correlations between galectin-1 (LGALS1) and vimentin, E-cadherin (CDH1) and N-cadherin (CDH2) relative mRNA expression. B—Correlations between OTX-008 IC50s and vimentin, E-cadherin (CDH1) and N-cadherin (CDH2) relative mRNA expression. C—Antiproliferative effects of OTX-008 in epithelial COLO205-S and mesenchymal COLO205-R colon cancer cells. D—Antiproliferative effects of OTX-008 in SNAIL-inducible colon cancer cell lines. E—Antiproliferative effects of OTX-008 in shWISP breast cancer cell lines.
as §1, with “After 72 h drug exposure and 48 h wash-out, cells were incubated with 0.4 mg/ml MTT for 4 hours at 37° C.” left out, “line. […]” for “line.”

A further test has as its system endothelial cell. The conditions noted are these: endothelial cell proliferation, migration, chick embryo chorioallantoic membrane assays; cited from earlier work.
A further test concerns MCF7-shWISP. As to the kind of experiment: Antiproliferative effects, shWISP model. Format: cell-based, human. Conditions: MCF7-shWISP vs MCF7.
From the text: as §2
as §1, with “After 72 h drug exposure and 48 h wash-out, cells were incubated with 0.4 mg/ml MTT for 4 hours at 37° C.” left out, “line. […]” for “line.”

In another test the test system is SQ20B cells. As to the kind of experiment: Cell cycle analysis by flow cytometry. Format: cell-based, human. Conditions: 72 h exposure. The method, then:
Cell cycle analysis was assessed by flow cytometry. In brief, cells were seeded onto […] flasks and treated with various concentrations of OTX-008. After 72 h exposure, adherent and non-adherent cells were recovered, washed with PBS, fixed in 70% ethanol and stored at −20° C. until use. Cells were rehydrated in PBS, incubated for 30 minutes at 37° C. with 200 μg/ml RNAse A, and for 20 minutes at +4° C. with 40 μg/ml propidium iodide in the dark. The cell cycle distribution was determined with a flow cytometer (FACSCalibur and Cell Quest Pro software, BD Biosciences, Le-Pont-de-Claix, France).
To study the mechanism of OTX-008-induced inhibition of cell proliferation, the effect of OTX-008 on cell cycle in SQ20B cells was examined (FIG. 5B). […] Activation of cdc2 (cdk1) by de-phosphorylation of tyrosine 15 is required for G2/M transition. […] Thus, the level of phosphorylated cdc2 on tyrosine 15 and wee1 on serine 642 in SQ20B cell line were exposed to 3 μM OTX-008 for 72 h. […] In order to determine the potential relationship between the inhibition of MAPK signaling pathways and the effects on cell cycle by OTX-008, SQ20B cells were pretreated for 2 h with the ERK1/2 inhibitor UO126 followed by the OTX-008 addition for 72 hours.

Take `CN(C)CCNC(=O)COc1c2cccc1Cc1cccc(c1OCC(=O)NCCN(C)C)Cc1cccc(c1OCC(=O)NCCN(C)C)Cc1cccc(c1OCC(=O)NCCN(C)C)C2` [OTX-008]: the GI50 in test [1] is > 9 µM. Moreover, the “activity in epithelial vs mesenchymal cells” value in test [2] was “markedly more active in COL0205-S cells than in COL0205-R cells”. The “angiogenesis inhibition in vitro” value in the test on endothelial cell is “potent angiogenesis inhibitor”. Moreover, the “effect of WISP inhibition on sensitivity” value in the test with MCF7-shWISP is “marked resistance to high concentrations of the drug”. In the test on SQ20B cells, the cell cycle distribution entry is “dose-dependent accumulation of cells in G2/M phase”.
